Experimental data: ChEMBL document CHEMBL1130669, “Resveratrol as a new type of DNA-cleaving agent” (1998)

How the values were obtained:
[1] = system: Escherichia coli; assay: Compound was tested for its ability to inhibit DNA strand scission induced by resveratrol and Cu2+, at concentration 1 mM; type: functional
[2] = system: Escherichia coli; assay: Compound was tested for its ability to inhibit DNA strand scission induced by resveratrol and Cu2+, at concentration 50 mM; type: functional

SMILES	inhibition at 1000 µM [1] [%]	inhibition at 50000 µM [2] [%]
Cc1ccoc1C	98.7	–
CCO [ALCOHOL]	–	1.9
C[S+](C)[O-] [DIMETHYL SULFOXIDE]	–	2.8
OC[C@@H](O)[C@@H](O)[C@H](O)[C@H](O)CO [MANNITOL]	–	0.6
[I-].[K+] [POTASSIUM IODIDE]	–	61.5
[N-]=[N+]=[N-] [SODIUM AZIDE]	–	1.2
NC(N)=S [THIOUREA]	–	93.8
O=S(=O)(O)c1cc(O)c(O)c(S(=O)(=O)O)c1 [TIRON]	96.5	–
